# Experiments:
# EcR/RXR [1] = assay: Time-dependent luciferase assays after photolysis, with or without washing out extracellular ligand; type: cell-based
# Description: Time-dependent luciferase assays. 293T cells were split in a 24-well culture plate (Becton Dickinson Labware, lot #353047) and were transfected by a calcium phosphate method. The cells in 500 μL culture medium were incubated with either 100 μM caged β-ecdysone, 100 μM β-ecdysone, or absent an ecdysteroid ligand. After the cells were incubated with caged β-ecdysone for 16 hours, the medium was removed and washed with PBS once. A fresh medium free of ligand was then immediately added just prior to UV light exposure for 1 min. In the “Caged+hv” experiment, the caged β-ecdysone ligand remained in the medium and these cells were likewise illuminated for 1 min. Cells that were not exposed to ecdysteroid ligand were treated in an otherwise analogous fashion. The cells were then returned to the incubator for various time intervals. Incubation was terminated by treating cells with an extraction buffer (1% Triton X-100 and 1 mM DTT in GME). Luciferase activity was preformed as described above.
# Cells were pre-incubated with the caged β-ecdysone 4 for 16 hr, illuminated for 1 min, and then lysed at various time points following photolysis. […] The 293T cell line was pre-incubated with 4 for 16 hr, the media subsequently removed, and the cells washed with PBS. Ecdysone-free media was then added, the cell culture incubated for various time points, and tested for luciferase activity. The gene expression kinetic profile is nearly identical for the two sets of experiments [(4+photolysis) versus (4+washing+photolysis)] during the first 5 hr, which is consistent with the notion that caged β-ecdysone 4 is intracellularly liberated (FIG. 3).
# What is the time-dependence of β-ecdysone-induced luciferase expression? We addressed this question by pre-incubating 293T cells with the caged derivative 4 for 16 hr followed by illumination for 1 min. Cells were subsequently incubated for various time intervals, lysed, and luciferase activity assessed. […]
# [2] = Photolysis of caged β-ecdysone 4, HPLC analysis and ferrioxalate actinometry; type: physicochemical; details: ferrioxalate actinometry, HPLC peak areas
# Description: Photolysis of Caged β-ecdysone 4. A 500 μL 100 μM solution of 4 in 2% methanol/98% water was placed in a 24-well culture plate. Photolysis was performed using an Oriel 200 W Hg arc lamp (model 6283) with a 348 nm filter (Oriel, lot number 51260; 50% internal transmittance at 348 nm and cutoff at 325 nm) to remove short wavelength light and an IR filter to remove heat. Aliquots of 10 μL were removed at different time points of photolysis and were analyzed by analytical HPLC (monitored at 242 nm) employing a Vydac C4 (250 mm×3.0 mm) column and using the following solvent system: a linear gradient from 95% A (water):5% B (acetonitrile) to 50% A (water):50% (acetonitrile) over 15 min followed by 50% A (water):50% B (acetonitrile) for 5 min with flow rate at 1 mL/min.
# Photoconversion of Caged β-Ecdysone 4 to β-Ecdysone 1. A preliminary assessment of the light-induced conversion of the caged analog 4 to β-ecdysone 1 was performed using a 24-well plate system. […] Aliquots from the wells were subsequently analyzed by HPLC to assess formation of 1 (data not shown). […] The photochemical quantum yield (φ=0.034) was determined using ferrioxalate actinometry (Hatchard & Parker, 1956) according to the equation φ=ΔP/(I×t), where t is the irradiation time, ΔP is the amount of photolabile converted, and was determined using HPLC peak areas.
# EcR/RXR [3] = assay: Immunodetection of intracellularly expressed luciferase, spot illumination; type: cell-based; details: 293T cells; for Luciferase expression by immunofluorescence, without illumination: 100 μM, 16 hr incubation, no light; for Luciferase expression by immunofluorescence after spot illumination: 4 washed out, spot illuminated (~0.25 mm^2) 10 sec, 6 hr incubation
# Description: Immunodetection of Intracellularly Expressed Luciferase. 293T cells were transferred to the individual wells of a 24-well culture plate (Becton Dickinson Labware, lot #353047) and transfected as described above. The cells were then incubated with either 100 μM β-ecdysone or 100 μM caged β-ecdysone for 16 hr. The medium was removed and the cells washed once with PBS before addition of an ecdysteroid free medium. The surface of the pre-scored wells was spot illuminated (˜0.25 mm^2) for 10 sec on a light microscope using a 100 W Hg-Arc lamp through an Olympus UAPO 20×/0.40 objective. The cells were then incubated for 6 hr, fixed with 4% formaldehyde in PBS for 60 min, washed with PBS 3×5 min, permeabilized with 0.1% TritonX100 for 10 min, washed with PBS 3×5 min, and blocked with 1% normal donkey serum (Jackson ImmunoResearch catalog #017-000-121) in PBS for 45 min. The cells were subsequently exposed to 300 μL of anti-luciferase pAb (polyclonal goat antibody, Promega, lot #149040) at a concentration of 40 μg/mL in 1% donkey serum in PBS. After incubation for 2 hr at room temperature in a humidified chamber, the cells were washed with PBS 3×15 min and exposed to 300 μL of an Alexa Fluor 568-labeled rabbit anti-goat IgG (20 μg/mL in 1% donkey serum/PBS for 1 hr, Molecular Probes, catalog #A-11079). Unbound antibody was removed by washing with PBS 3×15 min and the cells treated with 300 μL of mounting medium (N-propyl gallate at 6 mg/mL in 1:1 glycerol:PBS). Images were taken using an Olympus IX-70 microscope equipped with a CCD camera.
# Light-Driven Spatially-Discrete Luciferase Expression in Transiently Transfected 293T Cells. We examined whether the combination of 4 and spot illumination induces gene activation in a spatially discrete fashion. Transiently transfected 293T cells were incubated with 1 for 16 hr, fixed, permeabilized, exposed to a luciferase antibody, and stained with an Alexa-labeled secondary antibody. […] 293T cells were also exposed to 4, the media replaced with fresh media to remove extracellular 4, and spot illuminated (˜0.25 mm^2) for 10 sec. The cells were then returned to the incubator for 6 hr and subsequently analyzed for luciferase expression.
# However, if photo-uncaged intracellular β-ecdysone does migrate to the extracellular environment then it is possible that sites distant from the region of illumination could undergo unintentional gene activation as well. On the other hand, given the small intracellular volume of a typical cell (˜1 pL) it is likely that any uncaged β-ecdysone that escapes from its intracellular locale will be too dilute to effect changes in gene expression profiles at remote sites. We explicitly addressed this possibility by examining spatially-discrete gene activation using spot illumination of cultured 293T cells. Luciferase expression in fixed and permeabilized cells was visually identified via the coupled use of a luciferase antibody and a secondary Alexa-labeled antibody. […] Luciferase expression is not observed in the absence of β-ecdysone (data not shown) nor in the presence of caged β-ecdysone without light (see below). […] Regions outside of the zone of illumination fail to display luciferase expression.
# EcR/RXR [4] = assay: Luciferase expression in transiently transfected 293T cells with and without 1 min illumination; type: cell-based; details: for Fold luciferase induction / Activity as inducing agent in the luciferase-based gene expression system (in words): 293T cells; for Fold luciferase induction: culture media/2% MeOH; for Activity as inducing agent in the luciferase-based gene expression system (in words): without light
# Source text: Plasmid Description. The luciferase reporter (E/GRE)6TK81LUC consists of multimeric E/GRE binding sites from (E/GRE)4ΔMTVLuc linked to the minimal TK promoter in the pA3LUC reporter plasmid. The modified MMTV promoter from MMTVp206 that incorporates the 5′UTR of v-Ha-ras was inserted into a vector containing a modified ecdysone receptor VgEcR (a gift from R. Evans) to form MMTV-VgEcR.
# Cell Culture, DNA Transfection, and Luciferase Assays. Cell culture, DNA transfection, and luciferase assays were performed as previously described (Wantanable et al., 1966). Briefly, 293-derived BOSC cells (293T) were seeded into individual wells of a 24 well plate and maintained in Dulbecco's modified Eagles medium with 10% fetal calf serum and 1% penicillin/streptomycin. Cells were transiently transfected with pVgEcR/RXRα and (E/GRE)6TKLUC via a standard calcium phosphate method. The media was changed after 14 hr and the cells treated with 10 μL of 5 mM β-ecdysone 1 (FIG. 1) in methanol (to furnish a 100 μM final concentration of ecdysteroid). Cells were either left un-illuminated or illuminated for 1 min using an Oriel 200 W Hg arc lamp (model 6283) with a 348 nm filter (Oriel, lot number 51260, 50% internal transmittance at 348 nm and cutoff at <325 nm) to remove short wavelength light and two IR filters to remove heat. Cells were subsequently lysed as previously described and the luciferase assay performed at room temperature using an Autolumat LB 953 (EG & G, Berthold). Luciferase content was measured by calculating the light emitted during 10 sec of the reaction. The values are expressed in arbitrary light units.
# Light-Driven Luciferase Expression in Transiently Transfected 293T Cells. We employed a luciferase-based expression system to examine the biological activity of β-ecdysone and its alkylated analog 4. The 293T cell line was transiently transfected to constitutively express EcR/RXR and inducibly express (upon exposure to β-ecdysone) luciferase. Compound 4 was added to the transfected 293T cells, the cell culture subsequently illuminated, and luciferase activity assessed (Table 1). There is little observable luciferase activity with culture media alone. Exposure of the cells to the bioactive β-ecdysone 1 generates a nearly 90-fold induction of luciferase. By contrast, the caged analog 4 furnishes a slight 6-fold induction of activity over that of culture media alone. […] The latter is consistent with our observation that a 1 min photolysis time window converts approximately 60% of the caged derivative 4 into its bioactive counterpart 1. Finally, illumination in the absence of ligand fails to induce luciferase production.
# [5] = system: ecdysone-inducible gene expression system; details: cell-based systems; No et al., 1996; Albanese et al., 2000; cited from earlier work
# [6] = 293T cells pre-incubated 16 hr with 4, illuminated 1 min
# [7] = 100 μM ecdysteroid, not illuminated, versus culture media alone
smiles,measurement,setting,value
COc1cc(COC2CC3(C)C(CC2O)C(=O)C=C2C3CCC3(C)C(C(C)(O)C(O)CCC(C)(C)O)CCC23O)c([N+](=O)[O-])cc1OC (stereo not drawn) [caged β-ecdysone 4],Luciferase activity relative to maximal activity displayed by β-ecdysone,EcR/RXR [1]; 4 + washing (extracellular 4 removed) + 1 min photolysis,50%
same,Post-illumination time at which minimal luciferase activity was first observed,EcR/RXR [1]; [6],4 h
same,Time of maximal gene (luciferase) expression after photolysis,EcR/RXR [1]; [6],16 h
same,Photochemical quantum yield φ,[2],0.034
same,"Luciferase expression by immunofluorescence, without illumination",EcR/RXR [3],failed to exhibit detectable luciferase expression
same,Luciferase expression by immunofluorescence after spot illumination,EcR/RXR [3],spatially discrete luciferase expression is observed
same,Luciferase expression by immunofluorescence after spot illumination,EcR/RXR [3]; listed as 4,Only those regions exposed to UV light display luciferase production
same,Luciferase expression relative to that displayed by β-ecdysone 1,"EcR/RXR [4]; 293T cells treated with 4, 1 min photolysis",approximately 60%
same,Fold luciferase induction,EcR/RXR [4]; [7],6 fold
same,Fold luciferase induction,"EcR/RXR [4]; 100 μM ecdysteroid, not illuminated, versus culture media alone, listed as caged β-ecdysome 4",6.5 ± 0.1 fold
same,Fold luciferase induction,"EcR/RXR [4]; 100 μM, 1 min hν (348 nm filter, Hg arc lamp)",50 ± 4 fold
same,Activity as inducing agent in the luciferase-based gene expression system (in words),EcR/RXR [4],virtually inactive
same,Activity as inducing agent in the luciferase-based gene expression system (in words),EcR/RXR [4]; listed as caged ecdysteroid,nearly inactive
"CC(C)CC[C@@H](O)[C@](C)(O)[C@H]1CC[C@@]2(O)C3=CC(=O)[C@]4(O)C[C@@H](O)[C@@H](O)C[C@]4(C)[C@H]3[C@H](O)C[C@]12C [muristerone 6, muristerone]",Activity relative to β-ecdysone,[5],"1,000 times"
"CC(C)CC[C@@H](O)[C@](C)(O)[C@H]1CC[C@@]2(O)C3=CC(=O)[C@@H]4C[C@@H](O)[C@@H](O)C[C@]4(C)[C@H]3CC[C@]12C [ponasterone A 7, ponasterone A]",Activity relative to β-ecdysone,[5],"1,000 times"
"CC(C)(O)CC[C@@H](O)[C@](C)(O)[C@H]1CC[C@@]2(O)C3=CC(=O)[C@@H]4C[C@@H](O)[C@@H](O)C[C@]4(C)[C@H]3CC[C@]12C [β-ecdysone 1, β-ecdysone, reference compound]","Luciferase expression by immunofluorescence, without illumination",EcR/RXR [3],global luciferase expression throughout the cell culture
same,"Luciferase expression by immunofluorescence, without illumination",EcR/RXR [3]; listed as 1,luciferase expression (20% transfection efficiency) was observed throughout the general cell population
same,Fold luciferase induction,EcR/RXR [4]; [7],88 ± 9 fold
same,Fold luciferase induction,"EcR/RXR [4]; 100 μM ecdysteroid, not illuminated, versus culture media alone, listed as β-ecdysone",~100 fold

# — patent US8076318B2, “Caged ligands and uses thereof” (priority 2002, dated 2011)
